From US7335814B2, “Transgenic cells expressing glucosyltransferase nucleic acids” (The University of York, priority 2000, dated 2008)

T1: recombinant GTase A42 (Arabidopsis thaliana, UniProt O23401)
T1 construct: made in house; host or cells: E. coli
T1 sequence (O23401 1-479): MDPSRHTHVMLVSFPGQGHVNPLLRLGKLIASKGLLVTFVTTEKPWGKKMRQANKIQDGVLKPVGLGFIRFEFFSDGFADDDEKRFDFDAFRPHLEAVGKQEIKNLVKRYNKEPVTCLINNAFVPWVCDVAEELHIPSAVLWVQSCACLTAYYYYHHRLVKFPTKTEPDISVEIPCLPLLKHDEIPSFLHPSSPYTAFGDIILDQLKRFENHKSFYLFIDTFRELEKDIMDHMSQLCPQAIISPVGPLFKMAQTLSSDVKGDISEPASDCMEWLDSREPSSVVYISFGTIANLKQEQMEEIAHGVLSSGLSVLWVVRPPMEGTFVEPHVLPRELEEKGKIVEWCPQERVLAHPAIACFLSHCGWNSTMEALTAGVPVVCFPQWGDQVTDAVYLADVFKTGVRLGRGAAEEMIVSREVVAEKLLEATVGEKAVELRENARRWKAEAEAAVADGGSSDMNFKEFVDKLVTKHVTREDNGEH

T2: recombinant GTase A062 (Arabidopsis thaliana, UniProt Q9LR44)
T2 construct: made in house; host or cells: E. coli
T2 sequence (Q9LR44 1-469): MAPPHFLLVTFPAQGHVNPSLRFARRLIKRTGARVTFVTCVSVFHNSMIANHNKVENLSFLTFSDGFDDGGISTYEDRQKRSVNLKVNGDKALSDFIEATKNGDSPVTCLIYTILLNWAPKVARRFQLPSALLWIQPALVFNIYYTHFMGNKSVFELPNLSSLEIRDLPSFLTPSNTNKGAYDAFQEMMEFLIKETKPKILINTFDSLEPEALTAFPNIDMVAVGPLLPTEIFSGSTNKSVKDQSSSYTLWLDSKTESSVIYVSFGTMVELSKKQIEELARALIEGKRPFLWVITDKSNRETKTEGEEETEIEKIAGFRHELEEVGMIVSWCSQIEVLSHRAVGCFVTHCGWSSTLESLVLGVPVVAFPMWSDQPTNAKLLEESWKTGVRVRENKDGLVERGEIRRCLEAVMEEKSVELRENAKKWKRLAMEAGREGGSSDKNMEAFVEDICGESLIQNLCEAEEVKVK

T3: recombinant GTase A911 (Arabidopsis thaliana, UniProt O22182)
T3 sequence (O22182 1-456): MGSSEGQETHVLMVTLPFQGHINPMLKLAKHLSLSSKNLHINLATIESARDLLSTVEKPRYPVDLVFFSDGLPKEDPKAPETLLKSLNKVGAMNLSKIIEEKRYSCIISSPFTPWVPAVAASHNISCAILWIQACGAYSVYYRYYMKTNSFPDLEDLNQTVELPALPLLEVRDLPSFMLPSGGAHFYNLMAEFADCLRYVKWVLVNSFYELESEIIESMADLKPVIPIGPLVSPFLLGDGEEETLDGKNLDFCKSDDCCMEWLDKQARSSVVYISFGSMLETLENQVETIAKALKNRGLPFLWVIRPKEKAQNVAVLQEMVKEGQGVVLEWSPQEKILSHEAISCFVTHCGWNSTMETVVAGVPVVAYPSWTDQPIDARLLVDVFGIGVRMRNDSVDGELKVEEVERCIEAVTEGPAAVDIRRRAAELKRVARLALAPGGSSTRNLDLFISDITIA

T4: recombinant GTase A320 (Arabidopsis thaliana, UniProt Q9LVF0)
T4 construct: made in house; host or cells: E. coli
T4 sequence (Q9LVF0 1-496): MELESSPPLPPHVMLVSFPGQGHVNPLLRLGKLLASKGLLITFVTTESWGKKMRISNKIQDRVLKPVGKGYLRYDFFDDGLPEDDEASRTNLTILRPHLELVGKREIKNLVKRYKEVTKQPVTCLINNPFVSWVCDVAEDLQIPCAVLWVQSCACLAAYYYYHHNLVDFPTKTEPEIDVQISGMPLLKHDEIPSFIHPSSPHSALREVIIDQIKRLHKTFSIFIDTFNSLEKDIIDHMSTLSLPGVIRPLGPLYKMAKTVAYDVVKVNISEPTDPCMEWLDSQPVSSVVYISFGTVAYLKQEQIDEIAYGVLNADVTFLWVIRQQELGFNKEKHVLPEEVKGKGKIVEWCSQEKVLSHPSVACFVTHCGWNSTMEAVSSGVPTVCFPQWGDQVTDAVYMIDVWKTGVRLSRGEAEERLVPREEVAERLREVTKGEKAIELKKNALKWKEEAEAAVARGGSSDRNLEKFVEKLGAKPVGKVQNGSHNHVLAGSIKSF

T5: recombinant GTase A41 (Arabidopsis thaliana, UniProt Q5XF20)
T5 construct: made in house; host or cells: E. coli
T5 sequence (Q5XF20 7-490): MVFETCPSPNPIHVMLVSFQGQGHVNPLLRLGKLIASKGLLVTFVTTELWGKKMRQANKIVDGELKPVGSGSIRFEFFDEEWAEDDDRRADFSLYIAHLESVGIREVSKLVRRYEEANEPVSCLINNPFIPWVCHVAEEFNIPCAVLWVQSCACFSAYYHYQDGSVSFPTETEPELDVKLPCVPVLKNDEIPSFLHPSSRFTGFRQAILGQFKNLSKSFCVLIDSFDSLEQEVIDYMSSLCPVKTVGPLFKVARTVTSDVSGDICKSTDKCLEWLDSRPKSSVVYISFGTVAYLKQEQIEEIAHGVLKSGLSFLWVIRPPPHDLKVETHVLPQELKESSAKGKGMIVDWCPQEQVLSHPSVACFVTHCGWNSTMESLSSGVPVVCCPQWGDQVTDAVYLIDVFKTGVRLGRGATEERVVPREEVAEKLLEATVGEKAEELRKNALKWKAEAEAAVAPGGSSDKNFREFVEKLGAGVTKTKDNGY

B1: recombinant GTase A062 (Arabidopsis thaliana) (protein)
chain: MAPPHFLLVTFPAQGHVNPSLRFARRLIKRTGARVTFVTCVSVFHNSMIANHNKVENLSFLTFSDGFDDGGISTYEDRQKRSVNLKVNGDKALSDFIEATKNGDSPVTCLIYTILLNWAPKVARRFQLPSALLWIQPALVFNIYYTHFMGNKSVFELPNLSSLEIRDLPSFLTPSNTNKGAYDAFQEMMEFLIKETKPKILINTFDSLEPEALTAFPNIDMVAVGPLLPTEIFSGSTNKSVKDQSSSYTLWLDSKTESSVIYVSFGTMVELSKKQIEELARALIEGKRPFLWVITDKSNRETKTEGEEETEIEKIAGFRHELEEVGMIVSWCSQIEVLSHRAVGCFVTHCGWSSTLESLVLGVPVVAFPMWSDQPTNAKLLEESWKTGVRVRENKDGLVERGEIRRCLEAVMEEKSVELRENAKKWKRLAMEAGREGGSSDKNMEAFVEDICGESLIQNLCEAEEVKVK
notes: made in house; host or cells: E. coli

Experiments:
recombinant GTase A42 [1] = target: T1, recombinant GTase A42; assay: Kinetic studies (Michaelis-Menten) on recombinant GTase producing glucose esters; format: biochemical; conditions: glucose ester formation
recombinant GTase A42 [2] = target: T1, recombinant GTase A42; assay: Specific activity of recombinant GTase producing glucose ester against lignin precursors (HPLC); format: biochemical; conditions: 0.5 ml of potential substrates, 5 mM UDPG, 0.2 μg GTase, 200 μl, 20° C., 30 min
recombinant GTase A062 = target: T2, recombinant GTase A062; assay: as above; format: biochemical; conditions: 0.5 ml of potential substrates, 5 mM UDPG, 0.2 μg GTase, 200 μl, 20° C., 30 min
recombinant GTase A911 [3] = target: T3, recombinant GTase A911; assay: as above; format: biochemical; parameters: made in house; host or cells: E. coli; conditions: 0.5 ml of potential substrates, 5 mM UDPG, 0.2 μg GTase, 200 μl, 20° C., 30 min
recombinant GTase A320 = target: T4, recombinant GTase A320; assay: as above; format: biochemical; conditions: 5 mM UDPG, 0.2 μg GTase, 200 μl, 20° C., 30 min
recombinant GTase A41 = target: T5, recombinant GTase A41; assay: as above; format: biochemical; conditions: 5 mM UDPG, 0.2 μg GTase, 200 μl, 20° C., 30 min
recombinant GTase A43 = target: T6, recombinant GTase A43 (Arabidopsis thaliana, UniProt O23402); assay: as above; format: biochemical; conditions: 0.5 ml of potential substrates, 5 mM UDPG, 0.2 μg GTase, 200 μl, 20° C., 30 min
T6 construct: made in house; host or cells: E. coli

recombinant GTase A911 [4] = target: T3, recombinant GTase A911; assay: Kinetic studies (Michaelis-Menten) on recombinant GTase producing glucose esters; conditions: glucose ester formation
[5] = substrate: O=C(O)C=Cc1ccccc1; assay: as above; format: biochemical, Arabidopsis thaliana; conditions: other: glucose ester formation; pH 7.0; 30.0 °C
[6] = substrate: O=C(O)/C=C/c1ccc(O)cc1; assay: as above; format: biochemical, Arabidopsis thaliana; conditions: other: glucose ester formation; pH 7.0; 30.0 °C

Row | Molecule | Vmax (A42) (recombinant GTase A42 [1]) | Specific activity of A42 (substrate converted to glucose ester) (recombinant GTase A42 [2]) | Specific activity of A062 (substrate converted to glucose ester) (recombinant GTase A062) | Specific activity of A911 (substrate converted to glucose ester) (recombinant GTase A911 [3]) | Specific activity of A320 (substrate converted to glucose ester) (recombinant GTase A320) | Specific activity of A41 (substrate converted to glucose ester) (recombinant GTase A41) | Specific activity of A43 (substrate converted to glucose ester) (recombinant GTase A43) | Vmax (A911) (recombinant GTase A911 [4]) | Km [5] | Vmax [5] | Km [6] | Vmax [6]
1 | O=C(O)C=Cc1ccccc1 [Cinnamic acid, cinnamic acid] | 19.42 nkat/mg | 14.21 nkat/mg | 1.62 nkat/mg | 8.77 nkat/mg | 0.06 nkat/mg | 0.30 nkat/mg | 0.02 nkat/mg | 9.06 nkat/mg |  |  |  | 
2 | B1 |  |  |  |  |  |  |  |  | 4.33 mM | 2.87 nkat/mg | 5.05 mM | 4.91 nkat/mg
